Measurements reported in paper PMC8217011, “Natural brominated phenoxyphenols kill persistent and biofilm-incorporated cells of MRSA and other pathogenic bacteria” (Applied Microbiology and Biotechnology, 2020).
Converted amounts (≈) assume the structure as drawn.

Legend:
persisters of MRSA Mu50 = assay: Antipersister activity assay (Resazurin); format: cell-based; conditions: Staphylococcus aureus, 24 h, read-out: MIC against persisters
Method: Cultures were, if not stated differently, incubated at 37 °C with aeration and shaking (150 rpm) in Mueller-Hinton broth (MHB). Bacteria were freshly incubated at the next morning from an overnight pre-culture for actively growing bacteria to an OD600 nm of approx. 0.6. To ensure persistent growth form, the bacteria were grown overnight until a density at OD600 nm > 5.0 was obtained. For biofilm growth, some colonies from a Mueller-Hinton agar (MHA) plate were picked and resuspended in MHB. Cell density has been adjusted to OD600 nm = 0.8, and cells were sown into a flat-bottom 96-well plate to be incubated statically at 37 °C with aeration. Studies were mainly performed with S. aureus Mu50.
Sterile U-bottom 96-well polystyrene plates were used for the assay. The wells were prepared with a final volume of 50 μL phosphate-buffered saline (PBS, NaCl = 137 mM, KCl = 2.7 mM, NaHPO4 = 10 mM, KH2PO4 = 1.8 mM, pH = 7.4) containing a 2-fold serial dilution of compounds ranging from 100 to 0.78 μM. S. aureus was cultivated as described above and washed three times with PBS before adjusting the cell density to approx. 2 × 10^7 cells/mL (OD600 nm = 0.08). […]
Viability of bacterial cells was estimated employing the Resazurin dye reduction assay. […] Finally, the fluorescence was quantified in a plate reader with 535-nm excision and 590-nm emission wavelengths. […]

pre-formed MRSA biofilms = assay: Biofilm viability by CFU plating; format: cell-based, Staphylococcus aureus; conditions: 24 h of treatment, 4× minimal biofilm inhibitory concentration, moxifloxacin 20 μM
Method: Additionally, biofilm viability was quantified by CFU plating. Biofilms were pregrown as described above and treated for 24 h with 4× minimal biofilm inhibitory concentrations as calculated from the Resazurin reduction assay. Biofilms were dispersed by pipetting followed by sonification in a water bath. Dilutions were plated on Mueller-Hinton agar plates and incubated overnight at 37 °C.

[1] = tested on: MRSA strain containing pLA03::tetR; assay: MIC in recombinant strain, tetR overexpression; format: cell-based, Staphylococcus aureus; conditions: for MIC: Staphylococcus aureus, MRSA
Method: To corroborate the role as potential determinants of resistance, mtlA and tetR were overexpressed under control of an anhydrotetracycline (Atc)-inducible promoter, and the effect on sensitivity toward 3-bromo-PP was analysed (Fig. 4e). […] However, induction of mtlA or tetR expression in the presence of Atc strongly rendered the cells more susceptible to 3-bromo-PP resulting in MICs of 0.019 μM for mtlA and 0.078 μM for tetR overexpression, respectively. This translates into a […] and 8-fold increased sensitivity during mtlA or tetR overexpression, respectively, compared with the empty vector control (Fig. 4e).

SMILES	MIC (persisters of MRSA Mu50) [µM]	reduction in viable cell counts in biofilms (pre-formed MRSA biofilms)	MIC ([1]; induced with Atc (1 μg/mL anhydrotetracycline)) [µM]	MIC ([1]; non-induced) [µM]	increased sensitivity compared with the empty vector control ([1]; tetR overexpression) [fold]
Oc1c(Br)cc(Br)cc1Oc1ccc(Br)cc1Br [2-bromo-PP, 4,6-dibromo-2-(2′,4′-dibromophenoxy)phenol]	12.5 (≈ 6.27 µg/mL)	ca. 5 order of magnitudes	–	–	–
Oc1c(Br)cc(Br)c(Br)c1Oc1ccc(Br)cc1Br [3-bromo-PP, 3,4,6-tribromo-2-(2′,4′-dibromophenoxy)phenol]	6.25 (≈ 3.63 µg/mL)	ca. 5 order of magnitudes	0.078	0.312	8
